Results: ChEMBL document CHEMBL3585308, “Discovery and Modification of in Vivo Active Nrf2 Activators with 1,2,4-Oxadiazole Core: Hits Identification and Structure-Activity Relationship Study” (J Med Chem, 2015)
Values after ≈ are worked out from the molar mass of the structure shown. Active and inactive are the calls of the source. The calls are words filed in the database; no cut-off is given here.

Target: T1, Nuclear factor erythroid 2-related factor 2 (Homo sapiens) (UniProt Q16236)
T1 sequence (whole entry): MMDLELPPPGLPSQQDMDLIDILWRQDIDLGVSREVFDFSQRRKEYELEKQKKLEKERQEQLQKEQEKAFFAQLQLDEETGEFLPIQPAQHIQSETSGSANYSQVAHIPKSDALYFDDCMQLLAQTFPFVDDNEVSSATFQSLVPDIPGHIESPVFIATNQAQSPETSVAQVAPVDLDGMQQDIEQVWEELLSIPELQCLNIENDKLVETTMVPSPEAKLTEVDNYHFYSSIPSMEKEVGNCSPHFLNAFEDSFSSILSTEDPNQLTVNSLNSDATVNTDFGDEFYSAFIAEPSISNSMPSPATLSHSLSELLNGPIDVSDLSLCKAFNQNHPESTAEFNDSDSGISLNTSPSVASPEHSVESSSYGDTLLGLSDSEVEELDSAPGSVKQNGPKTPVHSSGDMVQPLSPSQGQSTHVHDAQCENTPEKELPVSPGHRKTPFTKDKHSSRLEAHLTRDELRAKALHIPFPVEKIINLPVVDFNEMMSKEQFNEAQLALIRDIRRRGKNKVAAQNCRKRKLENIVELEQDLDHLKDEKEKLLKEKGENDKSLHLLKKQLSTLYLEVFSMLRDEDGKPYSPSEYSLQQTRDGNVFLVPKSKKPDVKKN
Assay: Activation of Nrf2 in human HepG2-ARE-C8 cells assessed as upregulation of ARE level at 80 uM after 12 hrs by luciferase reporter gene assay relative to control
Assay type: cell-based
Conditions: not given

Row | fold change (FC) | Structure (SMILES)
1 | 2.75 | Brc1ccc(-c2nc(-c3ccc4nc[nH]c4c3)no2)cc1
2 | 12.1 | Cn1cnc2ccc(-c3noc(-c4ccc5cc[nH]c5c4)n3)cc21
3 | 7.67 | Cn1nnc2cc(-c3noc(-c4ccccc4)n3)ccc21
4 | 3.45 | FC(F)(F)c1cccc(-c2nc(-c3ccc4nc[nH]c4c3)no2)c1

Target: T1, Nuclear factor erythroid 2-related factor 2 (Homo sapiens)
Assay: Activation of Nrf2 in human HCT116 cells assessed as upregulation of GCLM gene expression at 10 uM measured at 6 hrs by qRT-PCR analysis relative to control
Assay type: cell-based
Conditions: HCT-116

Row | fold change (FC) | Structure (SMILES)
5 | 2.5 | Cn1cnc2ccc(-c3noc(-c4ccc5cc[nH]c5c4)n3)cc21

Target: T1, Nuclear factor erythroid 2-related factor 2 (Homo sapiens)
Assay: Activation of Nrf2 in human HCT116 cells at 40 uM measured at 4 hrs by qRT-PCR analysis relative to control
Assay type: cell-based
Conditions: HCT-116

Row | fold change (FC) | Structure (SMILES)
6 | 3.4 | Cn1cnc2ccc(-c3noc(-c4ccc5cc[nH]c5c4)n3)cc21

Target: T1, Nuclear factor erythroid 2-related factor 2 (Homo sapiens)
Assay: Activation of Nrf2 in human HepG2-ARE-C8 cells assessed as upregulation of ARE level at 0.02 uM after 12 hrs by luciferase reporter gene assay relative to control
Assay type: cell-based
Conditions: not given

Row | fold change (FC) | Structure (SMILES)
7 | 1.31 | Brc1ccc(-c2nc(-c3ccc4nc[nH]c4c3)no2)cc1
8 | 1.09 | Cn1cnc2ccc(-c3noc(-c4ccc5cc[nH]c5c4)n3)cc21
9 | 1.18 | Cn1nnc2cc(-c3noc(-c4ccccc4)n3)ccc21
10 | 2.56 | FC(F)(F)c1cccc(-c2nc(-c3ccc4nc[nH]c4c3)no2)c1

Target: T1, Nuclear factor erythroid 2-related factor 2 (Homo sapiens)
Assay: Activation of Nrf2 in human HepG2-ARE-C8 cells assessed as upregulation of ARE level at 2 uM after 12 hrs by luciferase reporter gene assay relative to control
Assay type: cell-based
Conditions: not given

Row | fold change (FC) | Structure (SMILES)
11 | 12.7 | Brc1ccc(-c2nc(-c3ccc4nc[nH]c4c3)no2)cc1
12 | 3.35 | Cn1cnc2ccc(-c3noc(-c4ccc5cc[nH]c5c4)n3)cc21
13 | 4.48 | Cn1nnc2cc(-c3noc(-c4ccccc4)n3)ccc21
14 | 13.9 | FC(F)(F)c1cccc(-c2nc(-c3ccc4nc[nH]c4c3)no2)c1

System: HCT-116
Assay: Cytotoxicity against human HCT116 cells assessed as reduction of cell proliferation at 80 uM after 24 hrs by MTT assay
Assay type: cell-based
Conditions: hct-116, 24 h

Row | Structure (SMILES) | Activity
15 | Brc1ccc(-c2nc(-c3ccc4nc[nH]c4c3)no2)cc1 | Non-toxic
16 | FC(F)(F)c1cccc(-c2nc(-c3ccc4nc[nH]c4c3)no2)c1 | Non-toxic

Target: T1, Nuclear factor erythroid 2-related factor 2 (Homo sapiens)
Assay: Activation of Nrf2 in human HCT116 cells measured at 4 hrs by qRT-PCR analysis
Assay type: cell-based
Conditions: HCT-116

Row | Activity | Structure (SMILES)
17 | Dose-dependent effect | Cn1cnc2ccc(-c3noc(-c4ccc5cc[nH]c5c4)n3)cc21

Target: T1, Nuclear factor erythroid 2-related factor 2 (Homo sapiens)
Assay: Activation of Nrf2 in human HCT116 cells assessed as upregulation of HO-1 expression at 10 uM measured at 4 hrs by Western blot analysis
Assay type: cell-based
Conditions: HCT-116

Row | Activity | Structure (SMILES)
18 | Active | Cn1cnc2ccc(-c3noc(-c4ccc5cc[nH]c5c4)n3)cc21

Target: T1, Nuclear factor erythroid 2-related factor 2 (Homo sapiens)
Assay: Activation of Nrf2 in human HepG2-ARE-C8 cells assessed as upregulation of ARE level at 20 uM after 12 hrs by luciferase reporter gene assay relative to control
Assay type: cell-based
Conditions: not given

Row | fold change (FC) | Structure (SMILES)
19 | 13.4 | Brc1ccc(-c2nc(-c3ccc4nc[nH]c4c3)no2)cc1
20 | 7.61 | Cn1cnc2ccc(-c3noc(-c4ccc5cc[nH]c5c4)n3)cc21
21 | 5.65 | Cn1nnc2cc(-c3noc(-c4ccccc4)n3)ccc21
22 | 10.5 | FC(F)(F)c1cccc(-c2nc(-c3ccc4nc[nH]c4c3)no2)c1

Target: T1, Nuclear factor erythroid 2-related factor 2 (Homo sapiens)
Assay: Activation of Nrf2 in human HepG2-ARE-C8 cells assessed as upregulation of ARE level at 40 uM after 12 hrs by luciferase reporter gene assay relative to control
Assay type: cell-based
Conditions: not given

Row | fold change (FC) | Structure (SMILES)
23 | 3.44 | Brc1ccc(-c2nc(-c3ccc4nc[nH]c4c3)no2)cc1
24 | 12.4 | Cn1cnc2ccc(-c3noc(-c4ccc5cc[nH]c5c4)n3)cc21
25 | 7.34 | Cn1nnc2cc(-c3noc(-c4ccccc4)n3)ccc21
26 | 5.65 | FC(F)(F)c1cccc(-c2nc(-c3ccc4nc[nH]c4c3)no2)c1

Target: T1, Nuclear factor erythroid 2-related factor 2 (Homo sapiens)
Assay: Activation of Nrf2 in human HCT116 cells at 10 uM by qRT-PCR analysis
Assay type: cell-based
Conditions: HCT-116, TDE = time-dependent effect

Row | Activity | Structure (SMILES)
27 | tde | Cn1cnc2ccc(-c3noc(-c4ccc5cc[nH]c5c4)n3)cc21

System: not listed separately
Assay: Intrinsic aqueous solubility of the compound by potentiometric titration method
Assay type: physicochemical
Conditions: read-out: Intrinsic_solubility

Row | solubility [µM] | Structure (SMILES)
28 | 35.4 (≈ 12.1 µg/mL) | Brc1ccc(-c2nc(-c3ccc4nc[nH]c4c3)no2)cc1

System: not listed separately
Assay: Dissociation constant, pKa of the compound by potentiometric titration method
Assay type: physicochemical
Conditions: not given

Row | pKa | Structure (SMILES)
29 | 3.25 | Brc1ccc(-c2nc(-c3ccc4nc[nH]c4c3)no2)cc1

System: not listed separately
Assay: Permeability of the compound at pH 7.4 by PAMPA
Assay type: physicochemical
Conditions: read-out: permeability

Row | Papp [×10⁻⁶ cm/s] | Structure (SMILES)
30 | 11.2 | Brc1ccc(-c2nc(-c3ccc4nc[nH]c4c3)no2)cc1

Target: T1, Nuclear factor erythroid 2-related factor 2 (Homo sapiens)
Assay: Activation of Nrf2 in human HepG2-ARE-C8 cells assessed as upregulation of ARE level at 0.2 uM after 12 hrs by luciferase reporter gene assay relative to control
Assay type: cell-based
Conditions: not given

Row | fold change (FC) | Structure (SMILES)
31 | 2.36 | Brc1ccc(-c2nc(-c3ccc4nc[nH]c4c3)no2)cc1
32 | 1.5 | Cn1cnc2ccc(-c3noc(-c4ccc5cc[nH]c5c4)n3)cc21
33 | 1.12 | Cn1nnc2cc(-c3noc(-c4ccccc4)n3)ccc21
34 | 8.04 | FC(F)(F)c1cccc(-c2nc(-c3ccc4nc[nH]c4c3)no2)c1

Target: T1, Nuclear factor erythroid 2-related factor 2 (Homo sapiens)
Assay: Activation of Nrf2 in human HCT116 cells assessed as upregulation of NQO1 gene expression at 10 uM measured over 1 to 24 hrs by qRT-PCR analysis relative to control
Assay type: cell-based
Conditions: HCT-116

Row | fold change (FC) | Structure (SMILES)
35 | 1.5 | Cn1cnc2ccc(-c3noc(-c4ccc5cc[nH]c5c4)n3)cc21

System: HCT-116
Assay: Cytotoxicity against human HCT116 cells assessed as effect on cell proliferation at 5 to 80 uM after 24 hrs by MTT assay
Assay type: cell-based
Conditions: hct-116, 24 h

Row | Structure (SMILES) | Activity
36 | Cn1cnc2ccc(-c3noc(-c4ccc5cc[nH]c5c4)n3)cc21 | Non-toxic
37 | Cn1nnc2cc(-c3noc(-c4ccccc4)n3)ccc21 | Non-toxic

Target: T1, Nuclear factor erythroid 2-related factor 2 (Homo sapiens)
Assay: Activation of Nrf2 in human HCT116 cells assessed as upregulation of HO-1 gene expression at 10 uM measured at 6 hrs by qRT-PCR analysis relative to control
Assay type: cell-based
Conditions: HCT-116

Row | fold change (FC) | Structure (SMILES)
38 | 2.4 | Cn1cnc2ccc(-c3noc(-c4ccc5cc[nH]c5c4)n3)cc21

Target: T1, Nuclear factor erythroid 2-related factor 2 (Homo sapiens)
Assay: Activation of Nrf2 in human HCT116 cells assessed as upregulation of NQO1 gene expression at 40 uM measured at 4 hrs by qRT-PCR analysis relative to control
Assay type: cell-based
Conditions: HCT-116

Row | fold change (FC) | Structure (SMILES)
39 | 2 | Cn1cnc2ccc(-c3noc(-c4ccc5cc[nH]c5c4)n3)cc21

Target: T1, Nuclear factor erythroid 2-related factor 2 (Homo sapiens)
Assay: Activation of Nrf2 in human HCT116 cells assessed as upregulation of GCLM gene expression measured at 4 hrs by qRT-PCR analysis
Assay type: cell-based
Conditions: HCT-116

Row | Activity | Structure (SMILES)
40 | Dose-dependent effect | Cn1cnc2ccc(-c3noc(-c4ccc5cc[nH]c5c4)n3)cc21

Target: T1, Nuclear factor erythroid 2-related factor 2 (Homo sapiens)
Assay: Activation of Nrf2 in human HCT116 cells at 10 uM measured at 4 hrs by qRT-PCR analysis relative to control
Assay type: cell-based
Conditions: HCT-116

Row | fold change (FC) | Structure (SMILES)
41 | 5 | Cn1cnc2ccc(-c3noc(-c4ccc5cc[nH]c5c4)n3)cc21

Target: T1, Nuclear factor erythroid 2-related factor 2 (Homo sapiens)
Assay: Activation of Nrf2 in human HCT116 cells at 10 uM after 2 hrs by Western blot analysis
Assay type: cell-based
Conditions: HCT-116

Row | Activity | Structure (SMILES)
42 | Active | Cn1cnc2ccc(-c3noc(-c4ccc5cc[nH]c5c4)n3)cc21

Target: T1, Nuclear factor erythroid 2-related factor 2 (Homo sapiens)
Assay: Activation of Nrf2 in human HCT116 cells assessed as upregulation of GCLM gene expression at 40 uM measured at 4 hrs by qRT-PCR analysis relative to control
Assay type: cell-based
Conditions: HCT-116

Row | fold change (FC) | Structure (SMILES)
43 | 3.8 | Cn1cnc2ccc(-c3noc(-c4ccc5cc[nH]c5c4)n3)cc21

Target: T1, Nuclear factor erythroid 2-related factor 2 (Homo sapiens)
Assay: Activation of Nrf2 in human HepG2-ARE-C8 cells assessed as upregulation of ARE level at 160 uM after 12 hrs by luciferase reporter gene assay relative to control
Assay type: cell-based
Conditions: not given

Row | fold change (FC) | Structure (SMILES)
44 | 2.49 | Brc1ccc(-c2nc(-c3ccc4nc[nH]c4c3)no2)cc1
45 | 8.73 | Cn1cnc2ccc(-c3noc(-c4ccc5cc[nH]c5c4)n3)cc21
46 | 11.7 | Cn1nnc2cc(-c3noc(-c4ccccc4)n3)ccc21
47 | 2.94 | FC(F)(F)c1cccc(-c2nc(-c3ccc4nc[nH]c4c3)no2)c1

Target: T1, Nuclear factor erythroid 2-related factor 2 (Homo sapiens)
Assay: Activation of Nrf2 in human HCT116 cells assessed as upregulation of HO-1 gene expression measured at 4 hrs by qRT-PCR analysis
Assay type: cell-based
Conditions: HCT-116

Row | Activity | Structure (SMILES)
48 | Dose-dependent effect | Cn1cnc2ccc(-c3noc(-c4ccc5cc[nH]c5c4)n3)cc21

System: not listed separately
Assay: Lipophilicity, log D of the compound at pH 7.4 by potentiometric titration method
Assay type: physicochemical
Conditions: buffer

Row | logD | Structure (SMILES)
49 | 3.54 | Brc1ccc(-c2nc(-c3ccc4nc[nH]c4c3)no2)cc1

Target: T1, Nuclear factor erythroid 2-related factor 2 (Homo sapiens)
Assay: Activation of Nrf2 in human HCT116 cells assessed as upregulation of NQO1 expression after 6 hrs by Western blot analysis
Assay type: cell-based
Conditions: HCT-116

Row | Activity | Structure (SMILES)
50 | Dose-dependent effect | Cn1cnc2ccc(-c3noc(-c4ccc5cc[nH]c5c4)n3)cc21

Target: T1, Nuclear factor erythroid 2-related factor 2 (Homo sapiens)
Assay: Activation of Nrf2 in human HCT116 cells assessed as upregulation of HO-1 gene expression at 40 uM measured at 4 hrs by qRT-PCR analysis relative to control
Assay type: cell-based
Conditions: HCT-116

Row | fold change (FC) | Structure (SMILES)
51 | 7 | Cn1cnc2ccc(-c3noc(-c4ccc5cc[nH]c5c4)n3)cc21

Target: T1, Nuclear factor erythroid 2-related factor 2 (Homo sapiens)
Assay: Activation of Nrf2 in human HCT116 cells after 6 hrs by Western blot analysis
Assay type: cell-based
Conditions: HCT-116

Row | Activity | Structure (SMILES)
52 | Dose-dependent effect | Cn1cnc2ccc(-c3noc(-c4ccc5cc[nH]c5c4)n3)cc21
